In PMC12529750 (Emerging Microbes & Infections, 2025):

How the values were obtained:
Type in all cases: cell-based
[1] = tested on: SARS-CoV-2 M49L+S144A variant
[2] = tested on: SARS-CoV-2 E166Q variant
[3] = tested on: SARS-CoV-2 E166G variant
[4] = tested on: SARS-CoV-2 M49L+E166A variant
[5] = tested on: SARS-CoV-2 M49L+S144A+T169I variant
[6] = tested on: SARS-CoV-2 ENS-EV2 (M49L, S144A and T169I in Mpro)
[7] = tested on: SARS-CoV-2 E166H variant
[8] = tested on: SARS-CoV-2 E166S variant
[9] = tested on: SARS-CoV-2 NIR-EV L50F+E166V
[10] = tested on: SARS-CoV-2 ENS-EV1 (M49L and S144A in Mpro)
[11] = tested on: SARS-CoV-2 M49L variant
[12] = tested on: SARS-CoV-2 S144A variant
[13] = tested on: SARS-CoV-2 T169I variant
[14] = tested on: SARS-CoV-2 replicon with M49L + E166A
[15] = tested on: SARS-CoV-2 replicon with M49L + S144A + T169I
[16] = tested on: SARS-CoV-2 L50F+E166V variant
[17] = tested on: SARS-CoV-2 E166L variant
[18] = tested on: SARS-CoV-2 replicon with E166A

In the case of `Cn1cnc(Cn2c(=O)[nH]/c(=N\c3cc4cn(C)nc4cc3Cl)n(Cc3cc(F)c(F)cc3F)c2=O)n1` [ENS, Ensitrelvir], the “Fold resistance, highest in VeroE6 or A549-hACE2 cells” value (from here on “Fold resistance, highest”) [1] is reported as “up to 290 fold”, the “Fold resistance, highest” value [2] is reported as less than 5 fold and the “Fold resistance, highest” value [3] is reported as less than 5 fold. The “Fold resistance, highest” value [4] was “up to 180 fold”, the “Fold resistance, highest” value [5] was “up to 660 fold” and the “Fold resistance, highest” value [6] was “up to 280 fold”. The “Fold resistance, highest” value [7] was greater than 5 fold, the “Fold resistance, highest” value [8] was greater than 5 fold and the “Fold resistance, highest” value [9] was “up to 36 fold”. The “Fold resistance, highest” value [10] was “up to 110 fold”, the “Fold resistance, highest” value [11] was “up to 71 fold” and the “Fold resistance, highest” value [12] was “up to 21 fold”. For the same compound, the “Fold resistance, highest” value [13] was “up to 4.8 fold”, the “Resistance of replicon (% RLU in treated cultures)” value [14] was “lower resistance” and the “Resistance of replicon (% RLU in treated cultures)” value [15] was “highest resistance”. The “Fold resistance, highest” value [16] was “up to 14 fold”.

In the case of `CC(C)(C)[C@H](NC(=O)C(F)(F)F)C(=O)N1C[C@H]2[C@@H]([C@H]1C(=O)N[C@H](C#N)C[C@@H]1CCNC1=O)C2(C)C` [NIR, Nirmatrelvir], the “Fold resistance, highest” value [2] is reported as less than 5 fold, the “Fold resistance, highest” value [3] is reported as less than 5 fold and the “Fold resistance, highest” value [6] is reported as less than 10 fold. The “Fold resistance, highest” value [8] was greater than 5 fold, the “Fold resistance, highest” value [10] was less than 10 fold and the “Fold resistance, highest” value [17] was greater than 5 fold. The “Resistance of replicon (% RLU in treated cultures)” value [18] was “relatively high resistance” and the “Resistance of replicon (% RLU in treated cultures)” value [14] was “relatively high resistance”.
